According to patent US20250270648A1, “MOLECULAR SIGNATURE FOR ASSESSING THE RESPONSIVENESS OF CANCER TO MITOCHONDRIA-TARGETED ANTIOXIDANTS” (UNIVERSITÉ CATHOLIQUE DE LOUVAIN, priority 2021, published 2025):

How the values were obtained:
[1] = test system: MDA-MB-231 human breast cancer cells; assay: Mitochondrial superoxide, EPR with MitoTEMPO-H ±PEG-SOD2; format: cell-based; details: MitoQ 100 nM, 48 h
Protocol: Mitochondrial superoxide levels were determined using electron paramagnetic resonance (EPR) with MitoTEMPO-H as a specific mitochondrial superoxide probe ±PEG-SOD2 to specifically assign signals to mitochondrial superoxide. EPR measurements were performed using a Bruker EMX-Plus spectrometer, operating in X-band (9.85 GHz) and equipped with a PremiumX ultra low noise microwave bridge and a SHQ high sensitivity resonator. Typical settings were: microwave power: 20 mW; attenuation: 10 dB; modulation frequency: 100 kHz; modulation amplitude: 0.1 mT; time constant: 20.48 ms; conversion time: 22.58 ms; sweep width: 0.15 mT. Briefly, MDA-MB-231, SkBr3, MCF10A or MDA-MB-436 cells were treated ±MitoQ for 48 h, harvested and resuspended in PBS at 2×10^6 cells/mL. The experimental mixture was prepared with cell suspension, 1 mM DTPA and 150 μM MitoTEMPO-H. It was then aspirated into a gas-permeable polytetrafluoroethylene (PTFE) tubing that was placed in a quartz tube opened at both ends. The tube was directly inserted inside the EPR cavity that was heated at 310° K with air during all experiments. […] Net superoxide production was calculated by subtracting the double integration values of the […] with PEG-SOD2 to the control value at timepoint 15 min.

MDA-MB-231 cells [2] = assay: Cell cycle, flow cytometry with propidium iodide; format: cell-based, human; details: MitoQ 100 nM, 48 h
Protocol: Cells were seeded in 6-well plates at a density of 500,000 cells/well and allowed to adhere overnight. Cells were then starved in 0.1% FBS medium for 24 h and treated for 48 h±MitoQ. Afterwards, they were detached with trypsin-EDTA (0.05%) (Gibco®, cat #25300054) and centrifuged at 1,200 rpm for 5 min. Culture medium was discarded, and the pellets washed. Cells were fixed by adding 700 μL of ice-cold ethanol 100% in 300 μL of cell suspension in PBS. Cells were then washed twice with 1 mL of Tris buffer with 0.2% (v/v) Triton X-100, and finally resuspended in 300 μL of PBS with RNase (0.2 mg/mL) and propidium iodide (5 μg/mL). At least 10^4 events were acquired using a FACSCalibur™ flow cytometer (Becton Dickinson®), and the FlowJo cell cycle analysis tool was used to analyze data according to DNA content.

MDA-MB-231 cells [3] = assay: Clonogenic assay on soft agar; format: cell-based, human; details: MitoQ 250 nM
Protocol: (§1) For soft agar colony formation assays, 0.4% Seaplaque soft agar (Lonza®) was diluted with DMEM containing 10% FBS and was covered by a second 0.3% soft agar layer in which 500 MDA-MB-231 or SKBR3 cells were embedded. Complete DMEM Culture media ±MitoQ was added with 2× the final concentration. After 20 days, colonies were counted using an Axiovert™ 40 CFL microscope equipped with a MRC camera.

SkBr3 cells [4] = assay: Clonogenic assay on soft agar; format: cell-based, human; details: MitoQ 250 nM
Protocol: as §1

[5] = test system: MDA-MB-231 and SkBr3 cells; assay: RNA sequencing, transcripts common to both cell lines; format: cell-based, human; details: MitoQ 500 nM, 48 h
Protocol: MDA-MB-231 and SkBr3 cancer cells were treated ±MitoQ for 48 h. Total mRNA was then extracted using the NucleoSpin RNA kit (Macherey-Nagel®), including DNAse treatment in the intermediary steps. mRNAs were quantified using the Qubit BR dsRNA assay kit (Thermo Fisher Scientific®), and mRNA integrity was evaluated on the Agilent 2100 Bioanalyzer using the RNA 6000 nano kit (Agilent®). All samples had RNA integrity number values ≥7.5. Libraries from control and treated samples were prepared starting from 150 ng of total mRNA using the KAPA RNA HyperPrep Kit with RiboErase (HMR) kit (KAPA Biosystems®) following the manufacturer's recommendations (KR1351—v1.16). Libraries were equimolarly pooled and sequenced on a single lane of an Illumina® NovaSeq 6000 platform. All libraries were sequenced at a depth of >50 million paired-end reads (2×100 bp reads) per sample. All sequencing data were analyzed using the Automated Reproducible MOdular workflow for preprocessing and differential analysis of RNAseq data (ARMOR) pipeline. In this pipeline, reads underwent a quality check using FastQC. Quantification and quality control results were summarized in a MultiQC report before being mapped using Salmon to the transcriptome index that was built using all Ensembl cDNA sequences obtained in the Homo_sapiens.GRCh38.cdna.all.fa file. Then, estimated transcript abundances from Salmon were imported into R using the tximeta package, and analyzed for differential gene expression with edgeR. To get a robust signature, only genes with |log 2 Fold Change|>1 and P<0.01 were retained.
While EMT and sternness markers are usual suspects when testing antimetastatic strategies, it was decided to go deeper in the understanding of the molecular effects of MitoQ, and performed unbiased RNA sequencing (RNAseq) using cells treated for 48 h±MitoQ (500 nM). […] On independent samples upon the same conditions (including |log 2 Fold Change|>1 and P<0.01), RT-qPCR on the two cell lines validated all genes as potential biomarkers of human breast cancer cell response to MitoQ, to the exception of EID1, PEG10, FTH1 and NUPR1 (FIG. 12A-M and Table 7).

MDA-MB-231 cells [6] = assay: Cell numbers, chemotherapy ±MitoQ, crystal violet; format: cell-based, human; details: increasing doses of chemotherapy ±100 nM MitoQ; 24-72 h
Protocol: (§2) To test the effects of combination treatments on cell numbers, MDA-MB-231 or SkBr3 cancer cells were plated in 96-well plates and treated with increasing concentrations of chemotherapeutic drug ±MitoQ for 24 h (epirubicin), 48 h (doxorubicin, 5-FU, cisplatin, paclitaxel) or 72 h (gemcitabine). Cells were then fixed in 11% glutaraldehyde and stained with crystal violet. The dye retained by the cells was solubilized in 10% acetic acid, and the optical density (570 nm) was measured using a SpectraMax i3 spectrophotometer equipped with a MiniMax™ imaging cytometer.

SkBr3 cells [7] = assay: Cell numbers, chemotherapy ±MitoQ, crystal violet; format: cell-based, human; details: increasing doses of chemotherapy ±100 nM MitoQ; 24-72 h
Protocol: as §2

[8] = |log 2 fold change|>1 and P<0.01

## COC1=C(OC)C(=O)C(CCCCCCCCCC[P+](c2ccccc2)(c2ccccc2)c2ccccc2)=C(C)C1=O [MitoQ]
[1]
  mitochondrial superoxide and mitochondrial H2O2 production: lower
MDA-MB-231 cells [2]
  cell cycle: not altered
MDA-MB-231 cells [3]
  clonogenicity in suspension on soft agar: completely abrogated
SkBr3 cells [4]
  clonogenicity in suspension on soft agar: completely abrogated
[5]; RNAseq, both cell lines
  EID1 and PEG10 gene transcripts: downregulated
  PHGDH-1, SLC7A11, SERPINE1, FTH1, TXNRD1, PSAT1, PCK2, G6PD, ASNS, SLC6A9 and NUPR1 gene transcripts: upregulated
[5]; [8]
  number of commonly induced transcripts: 11
  number of commonly repressed transcripts: 2
MDA-MB-231 cells [6]
  cytostatic/cytotoxic effects of doxorubicin, epirubicin, 5-fluorouracil (5-FU), cisplatin, paclitaxel and gemcitabine: did not alter
SkBr3 cells [7]
  cytostatic/cytotoxic effects of doxorubicin, epirubicin, 5-fluorouracil (5-FU), cisplatin, paclitaxel and gemcitabine: did not alter
